Experimental data published in patent US4459290A, “C-23-Modified derivatives of OMT, pharmaceutical compositions and method of use” (priority 1982, dated 1984).
Values after ≈ are worked out from the molar mass of the structure shown. Like-named read-outs stand apart in the source and are kept apart here.

Tests used:
[1] = test system: Streptococcus pyogenes C203; experiment: ED50 in mice experimentally infected with S. pyogenes C203 (Table VIII); assay type: in vivo
Method: The C-23 modified derivatives of OMT of this invention have shown in vivo antimicrobial activity against experimental infections. When two doses of test compound were administered to mice experimentally infected with a gram-positive bacterium, S. pyogenes C203, the activity observed was measured as an ED50 value [effective dose in mg/kg to protect 50% of the test animals: see Warren Wick, et al., J. Bacteriol. 81, 233-235 (1961)].

[2] = test system: Staphylococcus epidermidis EPI2; experiment: MIC, standard agar-dilution assay (Table V); assay type: cell-based; conditions: Staphylococcus epidermidis; S. epidermidis EPI2; agar dilution; read-out: MIC
Method: (§1) Especially noteworthy is the improved activity against gram-negative bacteria for several derivatives when compared to the activity of OMT. […] The MIC's in Tables V and VI were determined by standard agar-dilution assays. The MIC's in Table VII were obtained using a conventional broth-dilution microtiter test.

[3] = test system: Shigella sonnei N9; experiment: MIC, standard agar-dilution assay (Table V); assay type: cell-based
Outline: (§2)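 Growth inhibition in liquid medium, in a routine microtiter broth-dilution series, gave the MIC against staphylococci and pasteurellae; the gram-negative enteric strain was tested by conventional agar dilution instead.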

[4] = test system: Klebsiella pneumoniae KAE; experiment: MIC, standard agar-dilution assay (Table V); assay type: cell-based; conditions: Klebsiella pneumoniae; K. pneumoniae KAE; agar dilution; read-out: MIC
Outline: as §2

[5] = test system: Streptococcus Group 9960; experiment: MIC, standard agar-dilution assay (Table V); assay type: cell-based; conditions: GROUP9960; Streptococcus Group 9960; agar dilution; read-out: MIC
Method: as §1

[6] = test system: Staphylococcus aureus X400; experiment: MIC, standard agar-dilution assay (Table V); assay type: cell-based; conditions: Staphylococcus aureus; S. aureus X400, methicillin-resistant strain; agar dilution; read-out: MIC
Method: as §1

[7] = test system: Streptococcus Group D X66; experiment: MIC, standard agar-dilution assay (Table V); assay type: cell-based; conditions: Streptococcus Group D X66; agar dilution; read-out: MIC
Method: as §1

[8] = test system: Staphylococcus aureus V41; experiment: MIC, standard agar-dilution assay (Table V); assay type: cell-based; conditions: Staphylococcus aureus; S. aureus V41, penicillin-resistant strain; agar dilution; read-out: MIC
Method: as §1

[9] = test system: Escherichia coli EC14; experiment: MIC, standard agar-dilution assay (Table V); assay type: cell-based; conditions: Escherichia coli; E. coli EC14; agar dilution; read-out: MIC
Outline: as §2

[10] = test system: Staphylococcus aureus S13E; experiment: MIC, standard agar-dilution assay (Table V); assay type: cell-based; conditions: Staphylococcus aureus, S13E
Method: as §1

[11] = test system: Klebsiella pneumoniae X26; experiment: MIC, standard agar-dilution assay (Table V); assay type: cell-based; conditions: Klebsiella pneumoniae, X26
Method: as §1

[12] = test system: Staphylococcus epidermidis EPI1; experiment: MIC, standard agar-dilution assay (Table V); assay type: cell-based; conditions: Staphylococcus epidermidis; S. epidermidis EPI1; agar dilution; read-out: MIC
Method: as §1

[13] = test system: Escherichia coli N10; experiment: MIC, standard agar-dilution assay (Table V); assay type: cell-based; conditions: Escherichia coli; E. coli N10; agar dilution; read-out: MIC
Outline: as §2

[14] = test system: Staphylococcus aureus X1.1; experiment: MIC, standard agar-dilution assay (Table V); assay type: cell-based; conditions: Staphylococcus aureus, X1.1
Method: as §1

[15] = test system: Pasteurella multocida; experiment: Protection of one-day-old chicks against Pasteurella multocida infection (Table IX); assay type: in vivo; conditions: subcutaneous 30 mg/kg × 2, 1 and 4 hours post-challenge
Outline: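 One-day-old chicks were challenged subcutaneously with 0.1 ml of a twenty-hour tryptose broth culture of avian P. multocida. Compound was given subcutaneously at 30 mg/kg, 1 and 4 hours post-challenge, and protection against death was followed, with non-medicated infected chicks as controls.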

[16] = test system: Staphylococcus aureus; experiment: MIC, broth-dilution microtiter test (Table VII); assay type: cell-based; conditions: Staphylococcus aureus; S. aureus; broth-dilution microtiter; read-out: MIC
Outline: (§3)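 Broth microdilution, run as a conventional microtiter test, supplied MICs for the gram-positive S. aureus and the Pasteurella isolates. Enterobacter data instead rest on a standard agar-dilution procedure.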

[17] = test system: Pasteurella multocida 17E; experiment: MIC, broth-dilution microtiter test (Table VII); assay type: cell-based; conditions: Pasteurella multocida; P. multocida 17E, bovine isolate; broth-dilution microtiter; read-out: MIC
Outline: as §3

[18] = test system: Mycoplasma gallisepticum; experiment: MIC, broth-dilution microtiter test (Table VII); assay type: cell-based; conditions: Mycoplasmoides gallisepticum; M. gallisepticum; broth-dilution microtiter; read-out: MIC
Method: as §1

[19] = test system: Pasteurella multocida 22A; experiment: MIC, broth-dilution microtiter test (Table VII); assay type: cell-based; conditions: Pasteurella multocida; P. multocida 22A; broth-dilution microtiter; read-out: MIC
Outline: as §3

[20] = test system: Streptococcus sp. 80; experiment: MIC, broth-dilution microtiter test (Table VII); assay type: cell-based; conditions: Streptococcus sp. 80; broth-dilution microtiter; read-out: MIC
Method: as §1

[21] = test system: Pasteurella hemolytica 22C; experiment: MIC, broth-dilution microtiter test (Table VII); assay type: cell-based; conditions: Pasteurella, P. hemolytica 22C, read-out: MIC
Outline: as §3

[22] = test system: Pasteurella multocida 60A; experiment: MIC, broth-dilution microtiter test (Table VII); assay type: cell-based; conditions: Pasteurella multocida; P. multocida 60A, avian isolate; broth-dilution microtiter; read-out: MIC
Outline: as §3

[23] = test system: Pasteurella hemolytica 41D; experiment: MIC, broth-dilution microtiter test (Table VII); assay type: cell-based; conditions: Pasteurella, P. hemolytica 41D, read-out: MIC
Outline: as §3

[24] = test system: Pasteurella hemolytica 23C; experiment: MIC, broth-dilution microtiter test (Table VII); assay type: cell-based; conditions: Pasteurella, P. hemolytica 23C, read-out: MIC
Outline: as §3

[25] = test system: Mycoplasma synoviae; experiment: MIC, broth-dilution microtiter test (Table VII); assay type: cell-based; conditions: Mycoplasmopsis synoviae; M. synoviae; broth-dilution microtiter; read-out: MIC
Method: as §1

[26] = test system: Mycoplasma hyorhinis; experiment: MIC, broth-dilution microtiter test (Table VII); assay type: cell-based; conditions: M. hyorhinis; broth-dilution microtiter; read-out: MIC
Method: as §1

[27] = test system: Pasteurella multocida 68C; experiment: MIC, broth-dilution microtiter test (Table VII); assay type: cell-based; conditions: Pasteurella multocida; P. multocida 68C; broth-dilution microtiter; read-out: MIC
Outline: as §3

[28] = test system: Pasteurella multocida 40G; experiment: MIC, broth-dilution microtiter test (Table VII); assay type: cell-based; conditions: Pasteurella multocida; P. multocida 40G; broth-dilution microtiter; read-out: MIC
Outline: as §3

[29] = test system: these strains; experiment: Activity against the strains of Table VI, agar-dilution; assay type: cell-based; conditions: at the levels tested
Method: as §1

[30] = test system: Escherichia coli TEM; experiment: MIC, standard agar-dilution assay (Table V); assay type: cell-based; conditions: Escherichia coli
Method: (§4) The MIC's in Tables V and VI were determined by standard agar-dilution assays. The MIC's in Table VII were obtained using a conventional broth-dilution microtiter test.

[31] = test system: Streptococcus pyogenes C203; experiment: MIC, standard agar-dilution assay (Table V); assay type: cell-based; conditions: Streptococcus pyogenes, C203
Method: as §4

[32] = test system: Haemophilus influenzae R252; experiment: MIC, standard agar-dilution assay (Table V); assay type: cell-based; conditions: Haemophilus influenzae, R252
Method: as §4

[33] = test system: Haemophilus influenzae Holt; experiment: MIC, standard agar-dilution assay (Table V); assay type: cell-based; conditions: Haemophilus influenzae
Method: as §4

[34] = test system: Streptococcus pneumoniae Park I; experiment: microbe, parasite or virus in culture; assay type: cell-based; conditions: Streptococcus pneumoniae; read-out: MIC
Method: as §1

## CCC1OC(=O)CC(O)C(C)C(OC2OC(C)C(O)C(N(C)C)C2O)C(CC=O)CC(C)C(=O)C=CC(C)=CC1CSc1nnc(C)o1 (centres unmarked) [Compound 4]
[1]; C203, po, read-out: ED50, Oral
  ED50: > 100 mg/kg
[1]; C203, sc, mice, subcutaneous, doses given 1 and 4 hours postinfection, read-out: ED50, Subcutaneous
  ED50: 12.6 mg/kg
[2]
  MIC: 0.5 µg/mL (≈ 0.719 µM)
[3]
  MIC: 64 µg/mL (≈ 92 µM)
[4]
  MIC: > 128 µg/mL
[5]
  MIC: 0.5 µg/mL (≈ 0.719 µM)
[6]
  MIC: 0.5 µg/mL (≈ 0.719 µM)
[7]
  MIC: 0.5 µg/mL (≈ 0.719 µM)
[8]
  MIC: 0.5 µg/mL (≈ 0.719 µM)
[9]
  MIC: > 128 µg/mL
[10]
  MIC: 0.25 µg/mL (≈ 0.359 µM)
[11]
  MIC: 8 µg/mL (≈ 11.5 µM)
[12]
  MIC: 0.25 µg/mL (≈ 0.359 µM)
[13]
  MIC: > 128 µg/mL
[14]
  MIC: 0.25 µg/mL (≈ 0.359 µM)
[15]
  Number of deaths/number treated: 8/10
[16]
  MIC: 1.56 µg/mL (≈ 2.24 µM)
[17]
  MIC: 6.25 µg/mL (≈ 8.98 µM)
[18]
  MIC: 0.39 µg/mL (≈ 0.56 µM)
[19]
  MIC: 6.25 µg/mL (≈ 8.98 µM)
[20]
  MIC: 0.39 µg/mL (≈ 0.56 µM)
[21]
  MIC: 12.5 µg/mL (≈ 18 µM)
[22]
  MIC: 6.25 µg/mL (≈ 8.98 µM)
[23]
  MIC: 12.5 µg/mL (≈ 18 µM)
[24]
  MIC: 12.5 µg/mL (≈ 18 µM)
[25]
  MIC: 0.78 µg/mL (≈ 1.12 µM)
[26]
  MIC: 6.25 µg/mL (≈ 8.98 µM)
[27]
  MIC: 6.25 µg/mL (≈ 8.98 µM)
[28]
  MIC: 3.12 µg/mL (≈ 4.48 µM)
[29]
  activity against these strains: did not show activity
[30]
  MIC: 32 µg/mL (≈ 46 µM)
[31]
  MIC: 0.25 µg/mL (≈ 0.359 µM)
[32]
  MIC: 4 µg/mL (≈ 5.75 µM)
[33]
  MIC: 4 µg/mL (≈ 5.75 µM)
[34]
  MIC: 0.06 µg/mL (≈ 0.0862 µM)
